Experimental data from US20240246946A1, “MODULATORS OF TREX1” (Constellation Pharmaceuticals, Inc., priority 2021, published 2024).
Values belong to the molecule of their own block, whether it stands above or below them.

Experiments:
full length human TREX1 = target: T1, full length human TREX1 (Homo sapiens, UniProt Q9NSU2); assay: hTREX1 Biochemical Assay (fluorescence, dsDNA substrate degradation); conditions: biochemical, read-out: hTREX1 IC50
T1 construct: N-terminally His-Tev tagged full length human TREX1; made in house; host or cells: E. coli
T1 sequence (Q9NSU2 1-314): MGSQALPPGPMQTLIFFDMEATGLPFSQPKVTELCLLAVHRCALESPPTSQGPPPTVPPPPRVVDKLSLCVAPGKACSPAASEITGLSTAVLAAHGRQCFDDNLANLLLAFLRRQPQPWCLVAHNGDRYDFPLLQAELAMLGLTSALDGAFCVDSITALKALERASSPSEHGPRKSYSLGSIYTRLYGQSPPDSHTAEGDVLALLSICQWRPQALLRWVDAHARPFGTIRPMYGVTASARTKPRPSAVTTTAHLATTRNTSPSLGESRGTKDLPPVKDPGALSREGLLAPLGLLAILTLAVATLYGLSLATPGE
Protocol: (§1) Degradation of the dsDNA liberates free fluorophore to produce a fluorescent signal. Specifically, 7.5 μL of N-terminally His-Tev tagged full length human TREX1 (expressed in E. coli and purified in house) in reaction buffer (50 mM Tris, 150 mM NaCl, 2 mM DTT, 0.1 mg/mL BSA, 0.01% (w/v) Tween-20, 5 mM MgCl2, pH 7.4) was added to a 384-well Black ProxiPlate Plus (PerkinElmer) which already contained compound (150 nL) at varying concentrations as a 10 point dose-response in DMSO. The plate was incubated at 25° C. for 4 hours. Reactions were initiated by adding 7.5 μL of dsDNA substrate (Strand A: 5′ TEX615/GCT AGG CAG 3′; Strand B: 5′ CTG CCT AGC/IAbRQSp (Integrated DNA Technologies)) in reaction buffer. Final concentrations were 4 pM TREX1, 60 nM dsDNA substrate in reaction buffer with 1.0% DMSO (v/v). After 18 hours at 25° C., reactions were quenched by the addition of 2 μL of 500 mM EDTA.

full length mouse TREX1 = target: T2, full length mouse TREX1 (Mus musculus, UniProt Q91XB0); assay: mTREX1 Biochemical Assay (fluorescence, dsDNA substrate degradation); conditions: biochemical, read-out: mTREX1 IC50
T2 construct: N-terminally His-Tev tagged full length mouse TREX1; made in house; host or cells: E. coli
T2 sequence (Q91XB0 1-314): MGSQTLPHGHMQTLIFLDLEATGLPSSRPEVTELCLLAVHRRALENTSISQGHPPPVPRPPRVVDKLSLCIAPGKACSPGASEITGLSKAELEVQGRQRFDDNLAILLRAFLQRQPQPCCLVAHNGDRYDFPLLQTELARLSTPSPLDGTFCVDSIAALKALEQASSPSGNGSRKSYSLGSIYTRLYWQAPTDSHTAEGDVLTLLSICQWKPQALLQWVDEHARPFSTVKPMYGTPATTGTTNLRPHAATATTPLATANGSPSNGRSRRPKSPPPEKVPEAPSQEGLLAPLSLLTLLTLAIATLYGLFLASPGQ
Protocol: as §1, with “length mouse” for “length human”, “were 6” for “were 4”

SMILES: CC(c1nc(C(=O)Nc2cnoc2)c(O)c(=O)n1C)C(c1cnn(C)c1)c1cccnc1C#N (single isomer, unassigned) [Example 7 D1E2]
- IC50 (full length human TREX1): > 10 nM
- IC50 (full length mouse TREX1): > 10 nM

SMILES: CC(c1nc(C(=O)Nc2cnoc2)c(O)c(=O)n1C)C(c1cnn(C)c1)c1cccnc1C#N (single isomer, unassigned) [Example 7 D2E1]
- IC50 (full length human TREX1): > 10 nM
- IC50 (full length mouse TREX1): > 10 nM

SMILES: CC(c1nc(C(=O)Nc2cnoc2)c(O)c(=O)n1C)C(c1cnn(C)c1)c1ccncc1C#N (single isomer, unassigned) [Example 8 D1E1]
- IC50 (full length human TREX1): > 10 nM
- IC50 (full length mouse TREX1): > 10 nM

SMILES: CC(c1nc(C(=O)Nc2cnoc2)c(O)c(=O)n1C)C(c1cnn(C)c1)c1ccncc1C#N (single isomer, unassigned) [Example 8 D2E1]
- IC50 (full length human TREX1): > 10 nM
- IC50 (full length mouse TREX1): > 10 nM

SMILES: CC(c1nc(C(=O)Nc2cnoc2)c(O)c(=O)n1C)C(c1cnn(C)c1)c1ccc(C(=O)N(C)C)cc1C#N (single isomer, unassigned) [Example 11 D2E1]
- IC50 (full length human TREX1): > 10 nM
- IC50 (full length mouse TREX1): > 10 nM

SMILES: CC(c1nc(C(=O)Nc2cnoc2)c(O)c(=O)n1C)C(c1cnn(C)c1)c1ccc(C(=O)N(C)C)cc1C#N (single isomer, unassigned) [Example 11 D2E2]
- IC50 (full length human TREX1): > 10 nM
- IC50 (full length mouse TREX1): > 10 nM

SMILES: CC(c1nc(C(=O)Nc2cnoc2)c(O)c(=O)n1C)C(c1cnn(C)c1)c1cc(F)ccc1C#N (single isomer, unassigned) [Example 14 D1E1]
- IC50 (full length human TREX1): > 10 nM
- IC50 (full length mouse TREX1): > 10 nM

SMILES: CC(c1nc(C(=O)Nc2cnoc2)c(O)c(=O)n1C)C(c1cnn(C)c1)c1cc(F)ccc1C#N (single isomer, unassigned) [Example 14 D2E2]
- IC50 (full length human TREX1): > 10 nM
- IC50 (full length mouse TREX1): > 10 nM

SMILES: CC(c1nc(C(=O)Nc2cnoc2)c(O)c(=O)n1C)C(c1cnn(C)c1)c1ccc(F)cc1C#N (single isomer, unassigned) [Example 15 D1E2]
- IC50 (full length human TREX1): > 10 nM
- IC50 (full length mouse TREX1): > 10 nM

SMILES: CC(c1nc(C(=O)Nc2cnoc2)c(O)c(=O)n1C)C(c1cnn(C)c1)c1ccc(F)cc1C#N (single isomer, unassigned) [Example 15 D2E2]
- IC50 (full length human TREX1): > 10 nM
- IC50 (full length mouse TREX1): > 10 nM

SMILES: CCn1cc(C(c2ccc(F)cc2C#N)C(C)c2nc(C(=O)Nc3cnoc3)c(O)c(=O)n2C)cn1 (single isomer, unassigned) [Example 16 D1E2]
- IC50 (full length human TREX1): > 10 nM
- IC50 (full length mouse TREX1): > 10 nM

SMILES: CCn1cc(C(c2ccc(F)cc2C#N)C(C)c2nc(C(=O)Nc3cnoc3)c(O)c(=O)n2C)cn1 (single isomer, unassigned) [Example 16 D2E1]
- IC50 (full length human TREX1): > 10 nM
- IC50 (full length mouse TREX1): > 10 nM

SMILES: CCn1cc(C(c2ccc(F)cc2C#N)C(C)c2nc(C(=O)Nc3cnoc3)c(O)c(=O)n2C)c(C)n1 (single isomer, unassigned) [Example 55 D2E1]
- IC50 (full length human TREX1): > 10 nM

SMILES: CC(c1nc(C(=O)Nc2cnoc2)c(O)c(=O)n1C)C(c1cnn(C)c1)c1ccc(F)cc1Cl (single isomer, unassigned) [Example 74 D1E1]
- IC50 (full length human TREX1): < 1 nM

SMILES: CC(c1nc(C(=O)Nc2cnoc2)c(O)c(=O)n1C)C(c1cnn(C)c1)c1ccc(F)cc1Cl (single isomer, unassigned) [Example 74 D1E2]
- IC50 (full length human TREX1): > 10 nM

SMILES: CC(c1nc(C(=O)Nc2cnoc2)c(O)c(=O)n1C)C(c1cnn(C)c1)c1ccc(F)cc1Cl (single isomer, unassigned) [Example 74 D2E1]
- IC50 (full length human TREX1): > 10 nM

SMILES: CC(c1nc(C(=O)Nc2cnoc2)c(O)c(=O)n1C)C(c1cnn(C)c1)c1ccc(F)cc1Cl (single isomer, unassigned) [Example 74 D2E2]
- IC50 (full length human TREX1): > 10 nM

Results, then the molecule that gave them:

- IC50 (full length human TREX1): > 10 nM
- IC50 (full length mouse TREX1): > 10 nM
SMILES: CC(c1nc(C(=O)Nc2cnoc2)c(O)c(=O)n1C)C(c1ccccc1C#N)c1ccnn1C (single isomer, unassigned) [Example 1 D2E1]

- IC50 (full length human TREX1): > 10 nM
- IC50 (full length mouse TREX1): > 10 nM
SMILES: CC(c1nc(C(=O)Nc2cnoc2)c(O)c(=O)n1C)C(c1cnn(C)c1)c1ccccc1C#N (single isomer, unassigned) [Example 2 D2E1]

- IC50 (full length human TREX1): > 10 nM
- IC50 (full length mouse TREX1): > 10 nM
SMILES: Cc1nn(C)cc1C(c1ccccc1C#N)C(C)c1nc(C(=O)Nc2cnoc2)c(O)c(=O)n1C (single isomer, unassigned) [Example 3 D1E2]

- IC50 (full length human TREX1): > 10 nM
- IC50 (full length mouse TREX1): > 10 nM
SMILES: Cc1nn(C)cc1C(c1ccccc1C#N)C(C)c1nc(C(=O)Nc2cnoc2)c(O)c(=O)n1C (single isomer, unassigned) [Example 3 D2E1]

- IC50 (full length human TREX1): > 10 nM
- IC50 (full length mouse TREX1): > 10 nM
SMILES: Cc1c(C(c2ccccc2C#N)C(C)c2nc(C(=O)Nc3cnoc3)c(O)c(=O)n2C)cnn1C (single isomer, unassigned) [Example 4 D1E2]

- IC50 (full length human TREX1): > 10 nM
- IC50 (full length mouse TREX1): > 10 nM
SMILES: Cc1c(C(c2ccccc2C#N)C(C)c2nc(C(=O)Nc3cnoc3)c(O)c(=O)n2C)cnn1C (single isomer, unassigned) [Example 4 D2E1]

- IC50 (full length human TREX1): > 10 nM
- IC50 (full length mouse TREX1): > 10 nM
SMILES: Cc1ccc(C(c2ccccc2C#N)C(C)c2nc(C(=O)Nc3cnoc3)c(O)c(=O)n2C)cn1 (single isomer, unassigned) [Example 5 D1E1]

- IC50 (full length human TREX1): > 10 nM
- IC50 (full length mouse TREX1): > 10 nM
SMILES: Cc1cc(C(c2ccccc2C#N)C(C)c2nc(C(=O)Nc3cnoc3)c(O)c(=O)n2C)ccn1 (single isomer, unassigned) [Example 6 D2E1]

- IC50 (full length human TREX1): > 10 nM
- IC50 (full length mouse TREX1): > 10 nM
SMILES: COCCn1cc(C(c2ccccc2C#N)C(C)c2nc(C(=O)Nc3cnoc3)c(O)c(=O)n2C)cn1 (single isomer, unassigned) [Example 9 D1E2]

- IC50 (full length human TREX1): > 10 nM
- IC50 (full length mouse TREX1): > 10 nM
SMILES: COCCn1cc(C(c2ccccc2C#N)C(C)c2nc(C(=O)Nc3cnoc3)c(O)c(=O)n2C)cn1 (single isomer, unassigned) [Example 9 D2E2]

- IC50 (full length human TREX1): > 10 nM
- IC50 (full length mouse TREX1): > 10 nM
SMILES: CC(c1nc(C(=O)Nc2cnoc2)c(O)c(=O)n1C)C(c1ccccc1C#N)c1cn(C)nc1C#N (single isomer, unassigned) [Example 10 D2E2]

- IC50 (full length human TREX1): > 10 nM
- IC50 (full length mouse TREX1): > 10 nM
SMILES: CC(c1nc(C(=O)Nc2cnoc2)c(O)c(=O)n1C)C(c1cn[nH]c1)c1ccccc1C#N (single isomer, unassigned) [Example 12 D2E2]

- IC50 (full length human TREX1): > 10 nM
- IC50 (full length mouse TREX1): > 10 nM
SMILES: CCn1cc(C(c2ccccc2C#N)C(C)c2nc(C(=O)Nc3cnoc3)c(O)c(=O)n2C)cn1 (single isomer, unassigned) [Example 13 D2E2]

- IC50 (full length human TREX1): > 10 nM
SMILES: COC(C)(C)Cn1cc(C(c2ccccc2C#N)C(C)c2nc(C(=O)Nc3cnoc3)c(O)c(=O)n2C)cn1 (single isomer, unassigned) [Example 37 D2E2]

- IC50 (full length human TREX1): < 1 nM
SMILES: Cc1cnn(C(c2ccccc2C#N)C(C)c2nc(C(=O)Nc3cnoc3)c(O)c(=O)n2C)c1 (single isomer, unassigned) [Example 47 D1E1]

- IC50 (full length human TREX1): > 10 nM
SMILES: Cc1cnn(C(c2ccccc2C#N)C(C)c2nc(C(=O)Nc3cnoc3)c(O)c(=O)n2C)c1 (single isomer, unassigned) [Example 47 D1E2]

- IC50 (full length human TREX1): > 10 nM
SMILES: Cc1ncc(C(c2ccccc2C#N)C(C)c2nc(C(=O)Nc3cnoc3)c(O)c(=O)n2C)cn1 (single isomer, unassigned) [Example 67 D1E1]

- IC50 (full length human TREX1): > 10 nM
SMILES: Cc1ncc(C(c2ccccc2C#N)C(C)c2nc(C(=O)Nc3cnoc3)c(O)c(=O)n2C)cn1 (single isomer, unassigned) [Example 67 D2E1]

- IC50 (full length human TREX1): > 10 nM
SMILES: Cc1ncc(C(c2ccccc2C#N)C(C)c2nc(C(=O)Nc3cnoc3)c(O)c(=O)n2C)cn1 (single isomer, unassigned) [Example 67 D2E2]

- IC50 (full length human TREX1): < 1 nM
SMILES: [2H]C([2H])([2H])n1cc(C(c2ccccc2C#N)C(C)c2nc(C(=O)Nc3cnoc3)c(O)c(=O)n2C)cn1 (single isomer, unassigned) [Example 76 D1E1]
